Assay results as given in patent US20240299359A1, “PHARMACEUTICAL COMPOSITION FOR ANIMALS CONTAINING 5-HYDROXY-METHYLIMIDAZOLIDINE-2,4-DIONE COMPOUND AS ACTIVE INGREDIENT” (KYONGBO PHARM. CO., LTD., priority 2021, published 2024).
“And” between values parts separate entries of the source, which are not always exact repeats. Identical values can stand only once.

System: beagles
Assay: 13-week repeated oral toxicity: urine test
Format: in vivo, beagle
Settings: for Acidity / Specific gravity / Creatinine UPC / Occult blood / Protein / Bilirubin: urine
Description: Urine tests were performed on the urine collected in the morning of blood donation day (Wednesday of the week) after fasting for about 16 hours, before administration, 4th week (day 29) after administration, the 8th week (day 57) after administration, and 13th week (day 92) after administration. Urine was collected from all the fasting subjects using a silicone tube connected to a duct after mounting a urine plate at the bottom of the cage for 16 hours. The collected urine was centrifuged at 1,500 rpm for 5 minutes to obtain the supernatant, then immersed in a urine strip (thinka Urine Test Strip, ARKRAY, Inc., Japan), the residue around the strip was removed, urine was analyzed using a urine analyzer (thinka RT-4010, ARKRAY, Inc., Japan), and the urine specific gravity of each subject was measured using a urine hydrometer (Master-URC.NM, ATAGO CO., LTD, Japan).

[1] = before administration, 200 mg/kg group, female, group mean
[2] = before administration, 200 mg/kg group, female, individual animal
[3] = before administration, 200 mg/kg group, female, individual animal, 200 mg/kg
[4] = before administration, 200 mg/kg group, male, group mean
[5] = before administration, 200 mg/kg group, male, individual animal
[6] = before administration, 200 mg/kg group, male, individual animal, 200 mg/kg
[7] = before administration, 500 mg/kg group, female, group mean
[8] = before administration, 500 mg/kg group, female, individual animal
[9] = before administration, 500 mg/kg group, female, individual animal, 500 mg/kg
[10] = before administration, 500 mg/kg group, male, group mean
[11] = before administration, 500 mg/kg group, male, individual animal
[12] = before administration, 500 mg/kg group, male, individual animal, 500 mg/kg
[13] = before administration, 1,000 mg/kg group, female, group mean
[14] = before administration, 1,000 mg/kg group, female, individual animal
[15] = before administration, 1,000 mg/kg group, male, group mean
[16] = before administration, 1,000 mg/kg group, male, individual animal
[17] = 200 mg/kg, females, repeated administration for 13 weeks, group Mean
[18] = 200 mg/kg, females, repeated administration for 13 weeks, individual animals
[19] = 200 mg/kg, males, repeated administration for 13 weeks, group Mean
[20] = 200 mg/kg, males, repeated administration for 13 weeks, individual animals
[21] = 500 mg/kg, females, repeated administration for 13 weeks, group Mean
[22] = 500 mg/kg, females, repeated administration for 13 weeks, individual animals
[23] = 500 mg/kg, males, repeated administration for 13 weeks, group Mean
[24] = 500 mg/kg, males, repeated administration for 13 weeks, individual animals
[25] = 1,000 mg/kg, females, repeated administration for 13 weeks, group Mean
[26] = 1,000 mg/kg, females, repeated administration for 13 weeks, individual animals
[27] = 1,000 mg/kg, males, repeated administration for 13 weeks, group Mean
[28] = 1,000 mg/kg, males, repeated administration for 13 weeks, individual animals

CN1C(=O)NC(=O)C1O (centres unmarked) [KBP-001, 5-hydroxy-1-methylimidazolidine-2,4-dione]
urine test items including urine specific gravity (before and after administration, 13 weeks): fell within the normal physiological ranges | Acidity [1]: 7.833 PH | Specific gravity [1]: 1.03 | Creatinine UPC [2]: <0.20 mg(ratio) | Occult blood [2]: 0.03(+−) RBC/dl | Acidity [3]: 8.0 PH and 7.0 PH and 8.5 PH | Specific gravity [3]: 1.02 (2×) and 1.04 | Acidity [4]: 8.000 PH | Specific gravity [4]: 1.03 | Creatinine UPC [5]: <0.20 mg(ratio) | Protein [5]: 15(+−) | Acidity [6]: 8.0 PH and 7.0 PH and 9.0 PH | Specific gravity [6]: 1.03 | Acidity [7]: 6.833 PH | Specific gravity [7]: 1.02 | Creatinine UPC [8]: <0.20 mg(ratio) | Occult blood [8]: 0.03(+−) RBC/dl | Acidity [9]: 6.5 PH and 7.0 PH (2×) | Specific gravity [9]: 1.02 | Acidity [10]: 8.167 PH | Specific gravity [10]: 1.03 | Bilirubin [11]: 0.5(1+) | Creatinine UPC [11]: <0.20 mg(ratio) | Acidity [12]: 8.5 PH (2×) and 7.5 PH | Specific gravity [12]: 1.03 (2×) and 1.04 | Acidity [13]: 7.667 PH | Specific gravity [13]: 1.03 | Acidity [14]: 8.0 PH and 7.5 PH (2×) | Creatinine UPC [14]: <0.20 mg(ratio) | Specific gravity [14]: 1.04 and 1.02 (2×) | Acidity [15]: 8.000 PH | Specific gravity [15]: 1.03 | Acidity [16]: 8.0 PH and 9.0 PH and 7.0 PH | Bilirubin [16]: 0.5(1+) | Creatinine UPC [16]: <0.20 mg(ratio) | Occult blood [16]: 0.06(1+) RBC/dl | Specific gravity [16]: 1.03 and 1.02 and 1.04 | Acidity [17]: 7.333 PH | Specific gravity [17]: 1.03 | Acidity [18]: 7.0 PH (2×) and 8.0 PH | Creatinine UPC [18]: <0.20 mg(ratio) | Acidity [19]: 8.567 PH | Specific gravity [19]: 1.04 | Acidity [20]: 8.0 PH and 9.0 PH (2×) | Bilirubin [20]: 0.5(1+) | Creatinine UPC [20]: <0.20 mg(ratio) | Protein [20]: 15(+−) | Specific gravity [20]: 1.04 and 1.05 and 1.02 | Acidity [21]: 8.500 PH | Specific gravity [21]: 1.03 | Acidity [22]: 9.0 PH and 8.5 PH and 8.0 PH | Creatinine UPC [22]: <0.20 mg(ratio) | Specific gravity [22]: 1.04 (2×) and 1.02 | Acidity [23]: 8.500 PH | Specific gravity [23]: 1.04 | Acidity [24]: 9.0 PH (2×) and 7.5 PH | Creatinine UPC [24]: <0.20 mg(ratio) | Protein [24]: 15(+−) | Specific gravity [24]: 1.05 and 1.02 and 1.04 | Acidity [25]: 7.667 PH | Specific gravity [25]: 1.03 | Acidity [26]: 8.0 PH and 7.5 PH (2×) | Creatinine UPC [26]: <0.20 mg(ratio) | Specific gravity [26]: 1.05 and 1.03 and 1.02 | Acidity [27]: 7.833 PH | Specific gravity [27]: 1.03 | Acidity [28]: 9.0 PH and 7.0 PH and 7.5 PH | Creatinine UPC [28]: <0.20 mg(ratio) | Occult blood [28]: 0.06(1+) RBC/dl and 0.03(+−) RBC/dl | Protein [28]: 15(+−) | Specific gravity [28]: 1.04 and 1.02 and 1.03
